Test results from the CheMixHub ionic liquid set.

Assay: xn = mol fraction of the nth substance listed

CCCC[n+]1ccn(C)c1.COP(=O)([O-])OC + CCCCCC(=O)O.CCCCCC(=O)[O-].CC[NH+](CC)CCO
101 kPa, x2 = 0
Details	viscosity [mPa·s]
298.15 K	609
303.15 K	426
318.15 K	168.9
333.15 K	79.9
358.15 K	30.38
363.15 K	25.86

CCCCCC[n+]1ccn(C)c1.N#Cc1ccc[n-]1 + CCCCCCCCCCCCCC[P+](CCCCCC)(CCCCCC)CCCCCC.O=S(=O)([N-]S(=O)(=O)C(F)(F)F)C(F)(F)F
283.15 K, 100 kPa
Details	viscosity [mPa·s]
x2 = 0	900
x2 = 0.1	890
x2 = 0.2	880
x2 = 0.501	850
x2 = 0.601	880
x2 = 0.7	850
x2 = 0.8	870
x2 = 0.9	810

[Cl-].[Cl-].[Co+2] + CCCCCCCCCCCCCC[P+](CCCCCC)(CCCCCC)CCCCCC.[Cl-] + CCCCCCCC(=O)O
Details	viscosity [mPa·s]
296.1 K, 101.3 kPa, x2 = 0.4, x1 = 0.2	8500

O=C([O-])CC(O)(CC(=O)[O-])C(=O)[O-].[Na+].[Na+].[Na+] + CCCCCCCCCCCC[N+](C)(C)C.[Br-] + O
298.15 K, 101 kPa
Details	electrical conductivity [S/m]
x1 = 0.0001801, x2 = 6.99e-05	0.2684
x1 = 0.0001801, x2 = 7.929e-05	0.2719
x1 = 0.0001801, x2 = 8.85e-05	0.2754
x1 = 0.0001801, x2 = 9.753e-05	0.2789
x1 = 0.0001801, x2 = 0.0001069	0.2823
x1 = 0.0001801, x2 = 0.0001161	0.2857
x1 = 0.0001801, x2 = 0.0001253	0.2892
x1 = 0.0001801, x2 = 0.0001344	0.2925
x1 = 0.0001801, x2 = 0.0001434	0.2957
x1 = 0.0001801, x2 = 0.0001524	0.2987
x1 = 0.0001801, x2 = 0.0001611	0.3009
x1 = 0.0001801, x2 = 0.0001696	0.3029
x1 = 0.0001801, x2 = 0.0001784	0.3047
x1 = 0.0001801, x2 = 0.0001916	0.3068
x1 = 0.0001801, x2 = 0.0002048	0.3082
x1 = 0.0001801, x2 = 0.0002178	0.3097
x1 = 0.0001801, x2 = 0.0002306	0.311
x1 = 0.0001801, x2 = 0.0002434	0.3121
x1 = 0.0001801, x2 = 0.0002561	0.3132
x1 = 0.0001801, x2 = 0.0002685	0.3143
x1 = 0.0001801, x2 = 0.000281	0.3154
x1 = 0.0001801, x2 = 0.0002933	0.3165
x1 = 0.0001801, x2 = 0.0003055	0.3176
x1 = 0.0001802, x2 = 0	0.2438
x1 = 0.0001802, x2 = 3.07e-06	0.2445
x1 = 0.0001802, x2 = 6.32e-06	0.2456
x1 = 0.0001802, x2 = 1.391e-05	0.2483
x1 = 0.0001802, x2 = 2.348e-05	0.2516
x1 = 0.0001802, x2 = 3.251e-05	0.2548
x1 = 0.0001802, x2 = 4.154e-05	0.258
x1 = 0.0001802, x2 = 5.076e-05	0.2614
x1 = 0.0001802, x2 = 6.015e-05	0.2648
x1 = 0.001798, x2 = 0.000148	1.558
x1 = 0.001798, x2 = 0.0001666	1.562
x1 = 0.001798, x2 = 0.0001847	1.565
x1 = 0.001798, x2 = 0.0002029	1.569
x1 = 0.001798, x2 = 0.0002206	1.573
x1 = 0.001798, x2 = 0.0002383	1.576
x1 = 0.001798, x2 = 0.0002559	1.579
x1 = 0.001798, x2 = 0.000273	1.582
x1 = 0.001798, x2 = 0.0002898	1.585
x1 = 0.001798, x2 = 0.0003068	1.588
x1 = 0.001798, x2 = 0.0003234	1.591
x1 = 0.001798, x2 = 0.0003396	1.594
x1 = 0.001798, x2 = 0.0003558	1.597
x1 = 0.001798, x2 = 0.0003717	1.599
x1 = 0.001798, x2 = 0.0003855	1.602
x1 = 0.001798, x2 = 0.0004015	1.604
x1 = 0.001798, x2 = 0.000417	1.607
x1 = 0.001798, x2 = 0.000448	1.611
x1 = 0.001799, x2 = 0	1.541
x1 = 0.001799, x2 = 6.09e-06	1.538
x1 = 0.001799, x2 = 1.458e-05	1.538
x1 = 0.001799, x2 = 2.214e-05	1.539
x1 = 0.001799, x2 = 2.989e-05	1.54
x1 = 0.001799, x2 = 4.188e-05	1.542
x1 = 0.001799, x2 = 5.738e-05	1.543
x1 = 0.001799, x2 = 7.288e-05	1.544
x1 = 0.001799, x2 = 9.225e-05	1.547
x1 = 0.001799, x2 = 0.0001101	1.55
x1 = 0.001799, x2 = 0.0001291	1.554

CCCCO + CCCCCCCCCCCC[N+](C)(C)Cc1ccccc1.O=S(=O)([N-]S(=O)(=O)C(F)(F)F)C(F)(F)F
101 kPa, x2 = 0
Details	viscosity [mPa·s]
298.15 K	2.52
308.15 K	1.98
313.15 K	1.75
343.15 K	0.92
348.15 K	0.845

[Cl-].[Cl-].[Co+2] + CCCCCCCC[N+](C)(CCCCCCCC)CCCCCCCC.[Cl-] + CCCCCCCC(=O)O
Details	viscosity [mPa·s]
296.1 K, 101.3 kPa, x2 = 0.4, x1 = 0.2	428

[Cl-].[Cl-].[Co+2] + CCCCCCCC[N+](CCCCCCCC)(CCCCCCCC)CCCCCCCC.[Br-] + CCCCC/C=C\C/C=C\CCCCCCCC(=O)O
296.1 K, 101.3 kPa
Details	viscosity [mPa·s]
x2 = 0.4, x1 = 0.2	9700
x2 = 0.4286, x1 = 0.1429	2780

[Cl-].[Cl-].[Co+2] + CCCCCCCC[N+](CCCCCCCC)(CCCCCCCC)CCCCCCCC.[Br-] + CCCCCCCC(=O)O
296.1 K, 101.3 kPa
Details	viscosity [mPa·s]
x2 = 0.2857, x1 = 0.1429	2615
x2 = 0.4, x1 = 0.2	5700
x2 = 0.4286, x1 = 0.1429	7600

[Cl-].[Cl-].[Co+2] + CCCCCCCC[N+](CCCCCCCC)(CCCCCCCC)CCCCCCCC.[Br-] + CCCCCCCCCC(=O)O
Details	viscosity [mPa·s]
296.1 K, 101.3 kPa, x2 = 0.4, x1 = 0.2	55000

[Cl-].[Cl-].[Co+2] + CCCCCCCC[N+](CCCCCCCC)(CCCCCCCC)CCCCCCCC.[Br-] + Cc1ccc(C(C)C)c(O)c1
296.1 K, 101.3 kPa
Details	viscosity [mPa·s]
x2 = 0.4, x1 = 0.2	79000
x2 = 0.4286, x1 = 0.1429	48000

[Cl-].[Li+] + CCCCCCCCn1cc[n+](C)c1.N#C[S-] + CN1CCCC1=O
298.15 K, 101 kPa
Details	viscosity [mPa·s]
x2 = 0, x1 = 0.03756	2.607
x2 = 0, x1 = 0.07175	3.558
x2 = 0, x1 = 0.1044	4.958

CCCCCCCCn1cc[n+](C)c1.F[B-](F)(F)F + CCCCCCCCn1cc[n+](C)c1.[Cl-]
101 kPa
Details	electrical conductivity [S/m]	viscosity [mPa·s]
303 K, x2 = 0	0.0817	–
303 K, x2 = 0.8	0.00551	–
303.15 K, x2 = 0	–	258
303.15 K, x2 = 0.4	–	1093
308 K, x2 = 0.8	0.00853	–
313 K, x2 = 0.6	0.0233	–
318 K, x2 = 0	0.172	–
318 K, x2 = 0.2	0.106	–
318 K, x2 = 0.6	0.0327	–
318.15 K, x2 = 0.8	–	1486
323 K, x2 = 0.6	0.0452	–
328 K, x2 = 0.2	0.17	–
333 K, x2 = 0	0.322	–
333.15 K, x2 = 0	–	61

CCCCCCCCn1cc[n+](C)c1.O=[N+]([O-])[O-] + CCCCCCCCn1cc[n+](C)c1.[Cl-]
Details	viscosity [mPa·s]
293 K, 101 kPa, x2 = 0.3615	8500

CC(C)O + CCCCCC[N+](CC)(CC)CC.O=S(=O)([N-]S(=O)(=O)C(F)(F)F)C(F)(F)F
100 kPa, x1 = 1
Details	viscosity [mPa·s]
298.15 K	2.05
303.15 K	1.73
308.15 K	1.49

[Cl-].[Li+] + CCCCCC[n+]1ccn(C)c1.N#C[S-] + CN1CCCC1=O
298.15 K, 101 kPa
Details	viscosity [mPa·s]
x2 = 0, x1 = 0.04156	2.626
x2 = 0, x1 = 0.07132	3.558
x2 = 0, x1 = 0.1038	4.959

CC(C)O + CCCCCC[n+]1ccn(C)c1.O=S(=O)([N-]S(=O)(=O)C(F)(F)F)C(F)(F)F
100 kPa, x1 = 1
Details	viscosity [mPa·s]
293.15 K	2.42
298.15 K	2.05
303.15 K	1.73
308.15 K	1.49
313.15 K	1.34

CCCCCCCCCCCCCC[P+](CCCCCC)(CCCCCC)CCCCCC.O=S(=O)([N-]S(=O)(=O)C(F)(F)F)C(F)(F)F + CCCCCC[n+]1ccn(C)c1.O=S(=O)([N-]S(=O)(=O)C(F)(F)F)C(F)(F)F
100 kPa
Details	viscosity [mPa·s]
278.15 K, x2 = 0.404	870
283.15 K, x2 = 0.097	770

CC(C)O + CCCCCC[n+]1ccn(C)c1.O=S(=O)([O-])C(F)(F)F
100 kPa, x1 = 1
Details	viscosity [mPa·s]
298.15 K	2.05
308.15 K	1.49

CC(C)O + CCCCCC[n+]1ccn(C)c1.O=[N+]([O-])[O-]
100 kPa, x2 = 0
Details	viscosity [mPa·s]
293.15 K	2.42
298.15 K	2.08
303.15 K	1.8
308.15 K	1.56
313.15 K	1.36
318.15 K	1.19
323.15 K	1.05

CCCCC[N+](CC)(CC)CC.O=S(=O)([N-]S(=O)(=O)C(F)(F)F)C(F)(F)F + CCCCC[P+](CC)(CC)CC.O=S(=O)([N-]S(=O)(=O)C(F)(F)F)C(F)(F)F
101.3 kPa
Details	viscosity [mPa·s]
298.15 K, x1 = 0.6	123
303.15 K, x1 = 1	126
318.15 K, x1 = 0.2	39.5
338.15 K, x1 = 0.6	22.8
343.15 K, x1 = 1	23.3
348.15 K, x1 = 0.8	18.3
353.15 K, x1 = 0.2	13.1
353.15 K, x1 = 1	17.3

CCCCCCCCn1cc[n+](C)c1.O=[N+]([O-])[O-] + CCCCO
101 kPa
Details	viscosity [mPa·s]
283.15 K, x2 = 0.168	770
293.15 K, x2 = 0.358	137
293.15 K, x2 = 0.57	38.5
293.15 K, x2 = 0.676	20.63
293.15 K, x2 = 0.848	7.8
298.15 K, x2 = 0.458	59.3
298.15 K, x2 = 0.57	31.8
298.15 K, x2 = 0.848	6.79
303.15 K, x2 = 0.458	47.9
303.15 K, x2 = 0.676	14.91
308.15 K, x2 = 0.358	64.5
308.15 K, x2 = 0.676	12.81
313.15 K, x2 = 0.168	123
313.15 K, x2 = 0.358	52.2
318.15 K, x2 = 0.358	42.8
323.15 K, x2 = 0.458	23.19
323.15 K, x2 = 0.57	14.15
323.15 K, x2 = 0.676	8.67
323.15 K, x2 = 0.848	3.61
328.15 K, x2 = 0.458	17.18
